Reference: publication PMC12888861, “Antibacterial activity of enmetazobactam against Acinetobacter spp.: a molecular dissection of mechanism of action and resistance determinants” (Antimicrobial Agents and Chemotherapy, 2025)
Converted amounts (≈) assume the structure as drawn.

Test system: carbapenem-susceptible A. baumannii isolates (n = 54)
Experiment: MIC, broth microdilution (EUCAST), carbapenem-susceptible A. baumannii isolates
Assay type: cell-based, Acinetobacter baumannii
Conditions: for MIC: Acinetobacter baumannii
From the text: The bacterial strains used in this study comprised 208 clinical isolates from the Spanish National Acinetobacter spp. 2020 Multicenter Collection, which was previously characterized in detail by our research group, including whole-genome sequencing, phylogenetics studies, clonal dynamics, and resistance mechanisms ([2], [29]). Additionally, a collection of A. baumannii ATCC 17978 transformants coding the blaOXA-23, blaOXA-24/40, blaOXA-51, blaOXA-58, blaOXA-143, and blaOXA-201 genes, previously constructed and described by our group ([30]), was used to determine the activity of enmetazobactam against strains carrying the main CHDLs of A. baumannii.
The antimicrobial susceptibility of the 208 Acinetobacter spp. isolates was assessed using the broth microdilution method, as described in the European Committee on Antimicrobial Susceptibility Testing (EUCAST) v.15 guidelines (http://www.eucast.org/clinical_breakpoints). […] MICs for enmetazobactam alone were assessed as well. […] Subsequently, MIC testing was also conducted with a collection of A. baumannii ATCC 17978 transformants expressing clinically relevant OXA-like carbapenemase genes.
The A. baumannii ATCC 19606 strain was used as the reference strain in all susceptibility experiments, in duplicate assays. Antibiotics were purchased from Sigma-Aldrich, except enmetazobactam and durlobactam, which were obtained from Advanz Pharma and MedChemExpress, respectively.

## C[n+]1ccn(C[C@@]2(C)[C@H](C(=O)[O-])N3C(=O)C[C@H]3S2(=O)=O)n1 [enmetazobactam]
  MIC distribution 0.12: 0
MBC set, isolate Ab1, A. baumannii ST 164, ADC-6, OXA-91, non-CHDLs-producing
  MIC: 2 mg/L (≈ 6.36 µM)
MBC set, isolate Ab11, A. baumannii ST 239, ADC-2, OXA-51, non-CHDLs-producing
  MIC: 2 mg/L (≈ 6.36 µM)
MBC set, isolate Ab34, A. baumannii ST 2182, ADC-2, OXA-130, non-CHDLs-producing
  MIC: 4 mg/L (≈ 12.7 µM)
Isolate Ab1, ST 164, ADC-6, OXA-91, in combinations ETZ fixed at 8 mg/L
  MIC: 4 mg/L
Isolate Ab11, ST 239, ADC-2, OXA-51, in combinations ETZ fixed at 8 mg/L
  MIC: 4 mg/L
Isolate Ab34, ST 2182, ADC-2, OXA-130, in combinations ETZ fixed at 8 mg/L
  MIC: 4 mg/L
Isolate Ab38, ST 866, ADC-2, OXA-385, in combinations ETZ fixed at 8 mg/L
  MIC: 4 mg/L
Isolate Ab40, ST 2176, ADC-2, OXA-64, in combinations ETZ fixed at 8 mg/L
  MIC: 4 mg/L
Isolate Ab50, ST 2176, ADC-2, OXA-64, in combinations ETZ fixed at 8 mg/L
  MIC: 4 mg/L
Isolate Ab57, ST 1470, ADC-58, OXA-106, in combinations ETZ fixed at 8 mg/L
  MIC: 2 mg/L
Isolate Ab58, ST 6, ADC-2, OXA-94, in combinations ETZ fixed at 8 mg/L
  MIC: 4 mg/L
Isolate Ab61, ST 1639, ADC-7, OXA-64, in combinations ETZ fixed at 8 mg/L
  MIC: 4 mg/L
Isolate Ab62, ST 265, ADC-2, OXA-91, in combinations ETZ fixed at 8 mg/L
  MIC: 4 mg/L
Isolate Ab67, ST 1, ADC-11, OXA-69, in combinations ETZ fixed at 8 mg/L
  MIC: 4 mg/L
Isolate Ab79, ST 106, ADC-11, OXA-78, in combinations ETZ fixed at 8 mg/L
  MIC: 4 mg/L
Isolate Ab80, ST 2182, ADC-6, OXA-208, in combinations ETZ fixed at 8 mg/L
  MIC: 4 mg/L
Isolate Ab81, ST 25, ADC-79, OXA-64, in combinations ETZ fixed at 8 mg/L
  MIC: 4 mg/L
Isolate Ab93, ST 25, ADC-79, OXA-64, in combinations ETZ fixed at 8 mg/L
  MIC: 4 mg/L
Isolate Ab95, ST 582, ADC-5, OXA-317, in combinations ETZ fixed at 8 mg/L
  MIC: 2 mg/L
Isolate Ab96, ST 582, ADC-5, OXA-317, in combinations ETZ fixed at 8 mg/L
  MIC: 2 mg/L
Isolate Ab100, ST 145, ADC-58, OXA-343, in combinations ETZ fixed at 8 mg/L
  MIC: 2 mg/L
Isolate Ab110, ST 1623, ADC-3, OXA-70, in combinations ETZ fixed at 8 mg/L
  MIC: 4 mg/L
Isolate Ab112, ST 193, ADC-like, OXA-120, in combinations ETZ fixed at 8 mg/L
  MIC: 2 mg/L
Isolate Ab124, ST 2176, ADC-2, OXA-64, in combinations ETZ fixed at 8 mg/L
  MIC: 2 mg/L
Isolate Ab127, ST 2176, ADC-2, OXA-64, in combinations ETZ fixed at 8 mg/L
  MIC: 4 mg/L
Isolate Ab128, ST 2176, ADC-2, OXA-64, in combinations ETZ fixed at 8 mg/L
  MIC: 2 mg/L
Isolate Ab130, ST 32, ADC-79, OXA-100, in combinations ETZ fixed at 8 mg/L
  MIC: 2 mg/L
Isolate Ab131, ST 687, ADC-like, OXA-208, in combinations ETZ fixed at 8 mg/L
  MIC: 2 mg/L
Isolate Ab132, ST 1112, ADC-79, OXA-89, in combinations ETZ fixed at 8 mg/L
  MIC: 2 mg/L
Isolate Ab136, ST 2183, ADC-like, OXA-66, in combinations ETZ fixed at 8 mg/L
  MIC: 4 mg/L
Isolate Ab139, ST 54, ADC-like, OXA-365, in combinations ETZ fixed at 8 mg/L
  MIC: 4 mg/L
Isolate Ab142, ST 1, ADC-like, OXA-69, in combinations ETZ fixed at 8 mg/L
  MIC: 8 mg/L
Isolate Ab143, ST 1328, ADC-76, OXA-408, in combinations ETZ fixed at 8 mg/L
  MIC: 4 mg/L
Isolate Ab149, ST 1112, ADC-6, OXA-407, in combinations ETZ fixed at 8 mg/L
  MIC: 8 mg/L
Isolate Ab150, ST 2184, ADC-like, OXA-64, in combinations ETZ fixed at 8 mg/L
  MIC: 4 mg/L
Isolate Ab152, ST 132, ADC-2, OXA-120, in combinations ETZ fixed at 8 mg/L
  MIC: 4 mg/L
